# Test results: US11207310B2 (PRILENIA NEUROTHERAPEUTICS LTD., priority 2016, dated 2021)
# Like-named read-outs stand apart in the source and are kept apart here.
# Test system: patients with HD
# 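Further: UHDRS Total Functional Capacity items for finances and ADL, each scored 0 to 3, where 3 means normal function and 0 means unable (finances) or total care (ADL).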
structure (smiles),measurement,setting,value
"CCCN1CCC(c2cccc(S(C)(=O)=O)c2)CC1 [pridopidine, 4-[3-(methylsulfonyl)phenyl]-1-propyl-piperidine]","Δ to placebo: UHDRS TFC Finance and ADL score, change from baseline","67.5 mg bid, BL TFC≥9 or CAG Repeat >44, week 26",0.08
same,"Δ to placebo: UHDRS TFC Finance and ADL score, change from baseline","67.5 mg bid, CAG Repeats <44 and BL TMS 1st 3 Qs, week 26",0.18
same,"Δ to placebo: UHDRS TFC Finance and ADL score, change from baseline","67.5 mg bid, TMS 1st 2Qs, week 26",0.1
same,"Δ to placebo: UHDRS TFC Finance and ADL score, change from baseline","67.5 mg bid, TMS 1st 2Qs, week 52",0.25
same,"Δ to placebo: UHDRS TFC Finance and ADL score, change from baseline","67.5 mg bid, TMS 1st 3Qs, week 26",0.04
same,"Δ to placebo: UHDRS TFC Finance and ADL score, change from baseline","67.5 mg bid, TMS 1st 3Qs, week 52",−0.03
same,"Δ to placebo: UHDRS TFC Finance and ADL score, change from baseline","67.5 mg bid, TMS 1st Q, week 26",0.5
same,"Δ to placebo: UHDRS TFC Finance and ADL score, change from baseline","67.5 mg bid, TMS 1st Q, week 52",0.61
same,"Change from baseline in UHDRS TFC Finance ADL, Δ to placebo","67.5 mg bid, Week 26, ALL",0.16
same,"UHDRS TFC Finance ADL, change from baseline, Δ to placebo","67.5 mg bid, Week 26, BL TFC<7, p value 0.8408",−0.06
same,"UHDRS TFC Finance ADL, change from baseline, Δ to placebo","67.5 mg bid, Week 26, BL TFC≥7, p value 0.0817",0.32
same,"Change from baseline in UHDRS TFC Finance ADL, Δ to placebo","67.5 mg bid, Week 26, Stage 1 BL TFC 11-13",0.65
same,"Change from baseline in UHDRS TFC Finance ADL, Δ to placebo","67.5 mg bid, Week 26, Stage 2 BL TFC 7-10 (FIG. 11c)",0.26
same,"Change from baseline in UHDRS TFC Finance ADL, Δ to placebo","67.5 mg bid, Week 26, Stage 2 BL TFC 7-10 (FIG. 11f)",0.54
same,"Change from baseline in UHDRS TFC Finance ADL, Δ to placebo","67.5 mg bid, Week 52, ALL",0.1
same,"UHDRS TFC Finance ADL, change from baseline, Δ to placebo","67.5 mg bid, Week 52, BL TFC<7, p value 0.497",−0.25
same,"UHDRS TFC Finance ADL, change from baseline, Δ to placebo","67.5 mg bid, Week 52, BL TFC≥7, p value 0.1926",0.27
same,"Change from baseline in UHDRS TFC Finance ADL, Δ to placebo","67.5 mg bid, Week 52, Stage 1 BL TFC 11-13",−0.18
same,"Δ to placebo: UHDRS TFC Finance and ADL score, change from baseline","90 mg bid, BL CAG Repeat >44, week 26",0.67
same,"Δ to placebo: UHDRS TFC Finance and ADL score, change from baseline","90 mg bid, BL TFC≥9, week 26",0.51
same,"Δ to placebo: UHDRS TFC Finance and ADL score, change from baseline","90 mg bid, BL TFC≥9 and BL TMS 1st 3 Qs, week 26",0.45
same,"Δ to placebo: UHDRS TFC Finance and ADL score, change from baseline","90 mg bid, BL TFC≥9 and CAG Repeat >44, week 26",0.83
same,"Δ to placebo: UHDRS TFC Finance and ADL score, change from baseline","90 mg bid, BL TFC≥9 and CAG Repeats <44 and BL TMS 1st 3 Qs, week 26",0.81
same,"Δ to placebo: UHDRS TFC Finance and ADL score, change from baseline","90 mg bid, BL TFC≥9 or CAG Repeat >44, week 26",0.52
same,"Δ to placebo: UHDRS TFC Finance and ADL score, change from baseline","90 mg bid, CAG Repeats <44 and BL TMS 1st 3 Qs, week 26",0.6
same,"Δ to placebo: UHDRS TFC Finance and ADL score, change from baseline","90 mg bid, TMS 1st 2Qs, week 26",0.26
same,"Δ to placebo: UHDRS TFC Finance and ADL score, change from baseline","90 mg bid, TMS 1st 2Qs, week 52",0.47
same,"Δ to placebo: UHDRS TFC Finance and ADL score, change from baseline","90 mg bid, TMS 1st 3Qs, week 26",0.35
same,"Δ to placebo: UHDRS TFC Finance and ADL score, change from baseline","90 mg bid, TMS 1st 3Qs, week 52",0.21
same,"Δ to placebo: UHDRS TFC Finance and ADL score, change from baseline","90 mg bid, TMS 1st Q, week 26",0.63
same,"Δ to placebo: UHDRS TFC Finance and ADL score, change from baseline","90 mg bid, TMS 1st Q, week 52",0.57
same,"Change from baseline in UHDRS TFC Finance ADL, Δ to placebo","90 mg bid, Week 26, ALL",0.31
same,"UHDRS TFC Finance ADL, change from baseline, Δ to placebo","90 mg bid, Week 26, BL TFC<7, p value 0.3747",0.28
same,"UHDRS TFC Finance ADL, change from baseline, Δ to placebo","90 mg bid, Week 26, BL TFC≥7, p value 0.0093",0.47
same,"Change from baseline in UHDRS TFC Finance ADL, Δ to placebo","90 mg bid, Week 26, Stage 1 BL TFC 11-13",0.97
same,"Change from baseline in UHDRS TFC Finance ADL, Δ to placebo","90 mg bid, Week 26, Stage 2 BL TFC 7-10 (FIG. 11c)",0.3
same,"Change from baseline in UHDRS TFC Finance ADL, Δ to placebo","90 mg bid, Week 26, Stage 2 BL TFC 7-10 (FIG. 11f)",0.56
same,"Change from baseline in UHDRS TFC Finance ADL, Δ to placebo","90 mg bid, Week 52, ALL",0.17
same,"UHDRS TFC Finance ADL, change from baseline, Δ to placebo","90 mg bid, Week 52, BL TFC<7, p value 0.4368",−0.29
same,"UHDRS TFC Finance ADL, change from baseline, Δ to placebo","90 mg bid, Week 52, BL TFC≥7, p value 0.0088",0.53
same,"Change from baseline in UHDRS TFC Finance ADL, Δ to placebo","90 mg bid, Week 52, Stage 1 BL TFC 11-13",0.4
same,"Δ to placebo: UHDRS TFC Finance and ADL score, change from baseline","112.5 mg bid, BL CAG Repeat >44, week 26",0.47
same,"Δ to placebo: UHDRS TFC Finance and ADL score, change from baseline","112.5 mg bid, BL TFC≥9, week 26",0.57
same,"Δ to placebo: UHDRS TFC Finance and ADL score, change from baseline","112.5 mg bid, BL TFC≥9 and BL TMS 1st 3 Qs, week 26",0.54
same,"Δ to placebo: UHDRS TFC Finance and ADL score, change from baseline","112.5 mg bid, BL TFC≥9 and CAG Repeat >44, week 26",1.02
same,"Δ to placebo: UHDRS TFC Finance and ADL score, change from baseline","112.5 mg bid, BL TFC≥9 and CAG Repeats <44 and BL TMS 1st 3 Qs, week 26",1.08
same,"Δ to placebo: UHDRS TFC Finance and ADL score, change from baseline","112.5 mg bid, BL TFC≥9 or CAG Repeat >44, week 26",0.4
same,"Δ to placebo: UHDRS TFC Finance and ADL score, change from baseline","112.5 mg bid, CAG Repeats <44 and BL TMS 1st 3 Qs, week 26",0.57
same,"Δ to placebo: UHDRS TFC Finance and ADL score, change from baseline","112.5 mg bid, TMS 1st 2Qs, week 26",0.19
same,"Δ to placebo: UHDRS TFC Finance and ADL score, change from baseline","112.5 mg bid, TMS 1st 2Qs, week 52",0.44
same,"Δ to placebo: UHDRS TFC Finance and ADL score, change from baseline","112.5 mg bid, TMS 1st 3Qs, week 26",0.41
same,"Δ to placebo: UHDRS TFC Finance and ADL score, change from baseline","112.5 mg bid, TMS 1st 3Qs, week 52",0.09
same,"Δ to placebo: UHDRS TFC Finance and ADL score, change from baseline","112.5 mg bid, TMS 1st Q, week 26",1.1
same,"Δ to placebo: UHDRS TFC Finance and ADL score, change from baseline","112.5 mg bid, TMS 1st Q, week 52",0.74
same,"Change from baseline in UHDRS TFC Finance ADL, Δ to placebo","112.5 mg bid, Week 26, ALL",0.38
same,"UHDRS TFC Finance ADL, change from baseline, Δ to placebo","112.5 mg bid, Week 26, BL TFC<7, p value 0.9361",0.03
same,"UHDRS TFC Finance ADL, change from baseline, Δ to placebo","112.5 mg bid, Week 26, BL TFC≥7, p value 0.0007",0.62
same,"Change from baseline in UHDRS TFC Finance ADL, Δ to placebo","112.5 mg bid, Week 26, Stage 1 BL TFC 11-13",1.12
same,"Change from baseline in UHDRS TFC Finance ADL, Δ to placebo","112.5 mg bid, Week 26, Stage 2 BL TFC 7-10 (FIG. 11c)",0.46
same,"Change from baseline in UHDRS TFC Finance ADL, Δ to placebo","112.5 mg bid, Week 26, Stage 2 BL TFC 7-10 (FIG. 11f)",0.18
same,"Change from baseline in UHDRS TFC Finance ADL, Δ to placebo","112.5 mg bid, Week 52, ALL",0.1
same,"UHDRS TFC Finance ADL, change from baseline, Δ to placebo","112.5 mg bid, Week 52, BL TFC<7, p value 0.5626",−0.22
same,"UHDRS TFC Finance ADL, change from baseline, Δ to placebo","112.5 mg bid, Week 52, BL TFC≥7, p value 0.0841",0.36
same,"Change from baseline in UHDRS TFC Finance ADL, Δ to placebo","112.5 mg bid, Week 52, Stage 1 BL TFC 11-13",0.64
